According to patent US10202378B2, “Therapeutic compounds and uses thereof” (GENENTECH, INC., priority 2015, dated 2019):

Key:
TAF1-BD1 = TAF1-BD1 (Homo sapiens, UniProt P21675); assay: TAF1-BD1 TR-FRET Binding Assay; conditions: read-out: TAF1-BD1 HTRF IC50
TAF1-BD2 = TAF1-BD2 (Homo sapiens, UniProt P21675); assay: TAF1-BD2 TR-FRET Binding Assay; conditions: read-out: TAF1-BD2 HTRF IC50

| Compound | IC50 (TAF1-BD1) | IC50 (TAF1-BD2) |
| --- | --- | --- |
| CCOC(=O)c1c(C)[nH]c2c(=O)n(C)cc(C#CC(C)(O)c3cccc(F)c3)c12 (centres unmarked) [Example 33, ethyl 4-[3-(3-fluorophenyl)-3-hydroxy-but-1-ynyl]-2,6-dimethyl-7-oxo-1H-pyrrolo[2,3-c]pyridine-3-carboxylate] | 218 nM | 60 nM |
| 3-(hydroxymethyl)-4-(3-hydroxy-3-methyl-but-1-ynyl)-2,6-dimethyl-1H-pyrrolo[2,3-c]pyridin-7-one [Example 201] | 6050 nM | 2250 nM |
| CC(=O)NCCCOC(=O)c1c(C)[nH]c2c(=O)n(C)cc(C#CC(O)(c3ccccc3)C(F)(F)F)c12 (centres unmarked) [Example 135, 3-acetamidopropyl 2,6-dimethyl-7-oxo-4-(4,4,4-trifluoro-3-hydroxy-3-phenyl-but-1-ynyl)-1H-pyrrolo[2,3-c]pyridine-3-carboxylate] | 295 nM | 40.8 nM |
| CCOC(=O)c1c(C)[nH]c2c(=O)n(C)cc(C#C[C@](C)(O)c3ncccn3)c12 [Example 5, ethyl 4-[(3S)-3-hydroxy-3-pyrimidin-2-yl-but-1-ynyl]-2,6-dimethyl-7-oxo-1H-pyrrolo[2,3-c]pyridine-3-carboxylate] | 8350 nM | 1630 nM |
| CCOC(=O)c1c(C)[nH]c2c(=O)n(C)cc(C#C[C@@](C)(O)c3ncccn3)c12 [Example 6, ethyl 4-[(3R)-3-hydroxy-3-pyrimidin-2-yl-but-1-ynyl]-2,6-dimethyl-7-oxo-1H-pyrrolo[2,3-c]pyridine-3-carboxylate] | 989 nM | 147 nM |
| CCOC(=O)c1c(C)[nH]c2c(=O)n(C)cc(C#CC(O)(CC)c3ccccc3)c12 (centres unmarked) [Example 75, ethyl 4-(3-hydroxy-3-phenyl-pent-1-ynyl)-2,6-dimethyl-7-oxo-1H-pyrrolo[2,3-c]pyridine-3-carboxylate] | 427 nM | 76.5 nM |
| CC(=O)NCc1nnc(-c2c(C)[nH]c3c(=O)n(C)cc(C#CC(O)(c4ccccc4)C(F)(F)F)c23)o1 (centres unmarked) [Example 173, N-[[5-[2,6-dimethyl-7-oxo-4-(4,4,4-trifluoro-3-hydroxy-3-phenyl-but-1-ynyl)-1H-pyrrolo[2,3-c]pyridin-3-yl]-1,3,4-oxadiazol-2-yl]methyl]acetamide] | 490 nM | 117 nM |
| CCOC(=O)c1c(C)[nH]c2c(=O)n(C)cc(C#CC(O)(c3cccc(N(C)C)c3)C(F)(F)F)c12 (centres unmarked) [Example 39, ethyl 4-[3-[3-(dimethylamino)phenyl]-4,4,4-trifluoro-3-hydroxy-but-1-ynyl]-2,6-dimethyl-7-oxo-1H-pyrrolo[2,3-c]pyridine-3-carboxylate] | 525 nM | 76.9 nM |
| CCOC(=O)c1c(C)[nH]c2c(=O)n(C)cc(C#Cc3ccccc3OC(F)(F)F)c12 [Example 57, ethyl 2,6-dimethyl-7-oxo-4-[2-[2-(trifluoromethoxy)phenyl]ethynyl]-1H-pyrrolo[2,3-c]pyridine-3-carboxylate] | > 20000 nM | 59.6 nM |
| CCOC(=O)c1c(C)[nH]c2c(=O)n(C)cc(C#CC(O)(c3cccc(-c4ccccc4OC)c3)C(F)(F)F)c12 (centres unmarked) [Example 101, ethyl 2,6-dimethyl-7-oxo-4-[4,4,4-trifluoro-3-hydroxy-3-[3-(2-methoxyphenyl)phenyl]but-1-ynyl]-1H-pyrrolo[2,3-c]pyridine-3-carboxylate] | 4330 nM | 608 nM |
| CCOC(=O)c1c(C)[nH]c2c(=O)n(C)cc(C#CC(O)(c3cccc(CO)c3)C(F)(F)F)c12 (centres unmarked) [Example 43, ethyl 2,6-dimethyl-7-oxo-4-[4,4,4-trifluoro-3-hydroxy-3-[3-(hydroxymethyl)phenyl]but-1-ynyl]-1H-pyrrolo[2,3-c]pyridine-3-carboxylate] | 257 nM | 35.5 nM |
| CCOC(=O)c1c(C)[nH]c2c(=O)n(C)cc(C#CC(C)(C)C(=O)N(C)C)c12 [Example 36, ethyl 4-[4-(dimethylamino)-3,3-dimethyl-4-oxo-but-1-ynyl]-2,6-dimethyl-7-oxo-1H-pyrrolo[2,3-c]pyridine-3-carboxylate] | 1310 nM | 375 nM |
| Cc1ccccc1COC(=O)c1c(C)[nH]c2c(=O)n(C)cc(C#CC(C)(C)O)c12 [Example 121, o-tolylmethyl 4-(3-hydroxy-3-methyl-but-1-ynyl)-2,6-dimethyl-7-oxo-1H-pyrrolo[2,3-c]pyridine-3-carboxylate] | 85 nM | 21.5 nM |
| CCOC(=O)c1c(C)[nH]c2c(=O)n(C)cc(C#CC(O)(c3ccccc3)C(F)F)c12 (single isomer, unassigned) [Example 93b, ethyl 4-(4,4-difluoro-3-hydroxy-3-phenyl-but-1-ynyl)-2,6-dimethyl-7-oxo-1H-pyrrolo[2,3-c]pyridine-3-carboxylate] | 176 nM | 21.4 nM |
| CCOC(=O)c1c(C)[nH]c2c(=O)n(C)cc(C#CC(O)(c3ccccc3)C(F)F)c12 (single isomer, unassigned) [Example 93a, ethyl 4-(4,4-difluoro-3-hydroxy-3-phenyl-but-1-ynyl)-2,6-dimethyl-7-oxo-1H-pyrrolo[2,3-c]pyridine-3-carboxylate] | 599 nM | 65.5 nM |
| Cc1[nH]c2c(=O)n(C)cc(C#CC(C)(C)O)c2c1C(=O)OCc1ccccc1CO [Example 111, [2-(hydroxymethyl)phenyl]methyl 4-(3-hydroxy-3-methyl-but-1-ynyl)-2,6-dimethyl-7-oxo-1H-pyrrolo[2,3-c]pyridine-3-carboxylate] | 259 nM | 37.9 nM |

| Compound | IC50 (TAF1-BD1) | IC50 (TAF1-BD2) |
| --- | --- | --- |
| CCOC(=O)c1c(C)[nH]c2c(=O)n(C)cc(C#CC(C)(C)OC)c12 [Example 26, ethyl 4-(3-methoxy-3-methyl-but-1-ynyl)-2,6-dimethyl-7-oxo-1H-pyrrolo[2,3-c]pyridine-3-carboxylate] | 503 nM | 284 nM |
| CCOC(=O)c1c(C)[nH]c2c(=O)n(C)cc(C#Cc3ccc(OC)cc3)c12 [Example 58, ethyl 4-[2-(4-methoxyphenyl)ethynyl]-2,6-dimethyl-7-oxo-1H-pyrrolo[2,3-c]pyridine-3-carboxylate] | 315 nM | 38.4 nM |
| CCOC(=O)c1c(C)[nH]c2c(=O)n(C)cc(C#CC(C)(O)CC#N)c12 (centres unmarked) [Example 35, ethyl 4-(4-cyano-3-hydroxy-3-methyl-but-1-ynyl)-2,6-dimethyl-7-oxo-1H-pyrrolo[2,3-c]pyridine-3-carboxylate] | 139 nM | 100 nM |
| CCOC(=O)c1c(C)[nH]c2c(=O)n(C)cc(C#CC(C)(O)c3cccc(C#N)c3)c12 (centres unmarked) [Example 19, ethyl 4-[3-(3-cyanophenyl)-3-hydroxy-but-1-ynyl]-2,6-dimethyl-7-oxo-1H-pyrrolo[2,3-c]pyridine-3-carboxylate] | 146 nM | 30.3 nM |
| CCOC(=O)c1c(C)[nH]c2c(=O)n(C)cc(C#CC(C)(C)C(=O)NC)c12 [Example 32, ethyl 4-[3,3-dimethyl-4-(methylamino)-4-oxo-but-1-ynyl]-2,6-dimethyl-7-oxo-1H-pyrrolo[2,3-c]pyridine-3-carboxylate] | 802 nM | 1320 nM |
| CCOC(=O)c1c(C)[nH]c2c(=O)n(C)cc(C#Cc3cncn3C)c12 [Example 56, ethyl 2,6-dimethyl-4-[2-(3-methylimidazol-4-yl)ethynyl]-7-oxo-1H-pyrrolo[2,3-c]pyridine-3-carboxylate] | 337 nM | 129 nM |
| CCOC(=O)c1c(C)[nH]c2c(=O)n(C)cc(C#CC(C)(O)C3CCOCC3)c12 (centres unmarked) [Example 87, ethyl 4-(3-hydroxy-3-tetrahydropyran-4-yl-but-1-ynyl)-2,6-dimethyl-7-oxo-1H-pyrrolo[2,3-c]pyridine-3-carboxylate] | 770 nM | 181 nM |
| COc1ccccc1COC(=O)c1c(C)[nH]c2c(=O)n(C)cc(C#CC(C)(C)O)c12 [Example 113, (2-methoxyphenyl)methyl-4-(3-hydroxy-3-methyl-but-1-ynyl)-2,6-dimethyl-7-oxo-1H-pyrrolo[2,3-c]pyridine-3-carboxylate] | 123 nM | 24 nM |
| CCOC(=O)c1c(C)[nH]c2c(=O)n(C)cc(C#CC3(O)C(=O)N(C)c4ccccc43)c12 (centres unmarked) [Example 86, ethyl 4-[2-(3-hydroxy-1-methyl-2-oxo-indolin-3-yl)ethynyl]-2,6-dimethyl-7-oxo-1H-pyrrolo[2,3-c]pyridine-3-carboxylate] | 581 nM | 98.1 nM |
| CCc1nnc(-c2c(C)[nH]c3c(=O)n(C)cc(C#CC(C)(O)C4CC4)c23)o1 (centres unmarked) [Example 181, 4-(3-cyclopropyl-3-hydroxy-but-1-ynyl)-3-(5-ethyl-1,3,4-oxadiazol-2-yl)-2,6-dimethyl-1H-pyrrolo[2,3-c]pyridin-7-one] | 199 nM | 44.8 nM |
| Cc1[nH]c2c(=O)n(C)cc(C#CC(C)(C)O)c2c1C(=O)OCc1ccccn1 [Example 115, 2-pyridylmethyl 4-(3-hydroxy-3-methyl-but-1-ynyl)-2,6-dimethyl-7-oxo-1H-pyrrolo[2,3-c]pyridine-3-carboxylate] | 282 nM | 34.1 nM |
| CCOC(=O)c1c(C)[nH]c2c(=O)n(C)cc(C#CCCO)c12 [Example 82, ethyl 4-(4-hydroxybut-1-ynyl)-2,6-dimethyl-7-oxo-1H-pyrrolo[2,3-c]pyridine-3-carboxylate] | 1750 nM | 337 nM |
| C=CCn1cc(C#CC(C)(C)O)c2c(C(=O)OCC)c(C)[nH]c2c1=O [Example 51, ethyl 6-allyl-4-(3-hydroxy-3-methyl-but-1-ynyl)-2-methyl-7-oxo-1H-pyrrolo[2,3-c]pyridine-3-carboxylate] | 7200 nM | 227 nM |
| CCOC(=O)c1c(C)[nH]c2c(=O)n(C)cc(C#CC(O)(c3cccc(N)c3)C(F)(F)F)c12 (centres unmarked) [Example 2, ethyl 4-[3-(3-aminophenyl)-4,4,4-trifluoro-3-hydroxy-but-1-ynyl]-2,6-dimethyl-7-oxo-1H-pyrrolo[2,3-c]pyridine-3-carboxylate] | 249 nM | 45.3 nM |
| CCOC(=O)c1c(C)[nH]c2c(=O)n(C)cc(C#CC(O)(c3ccn(C)n3)C(F)(F)F)c12 (centres unmarked) [Example 42, ethyl 2,6-dimethyl-7-oxo-4-[4,4,4-trifluoro-3-hydroxy-3-(1-methylpyrazol-3-yl)but-1-ynyl]-1H-pyrrolo[2,3-c]pyridine-3-carboxylate] | 657 nM | 96.9 nM |
